# Experimental data from paper PMC9369712 (2022).
# Columns and labels:
# [1] = system: TP3-T6 (DNA, G4) TGGGGTCCGAGGCGGGGCTTGGG; test: 1H NMR titration (imino protons); conditions: 70 mM KCl, 20 mM KH2PO4, pH 7.0, 25 °C, 90% H2O
# [2] = system: TP3-T6 (DNA, G4) TGGGGTCCGAGGCGGGGCTTGGG; test: CD melting at 265 nm; conditions: 70 mM KCl; 20 mM phosphate pH 7.1; 2 µM DNA, 6 µM ligand; no stabilization
# [3] = system: TP3-T6 (DNA, G4) TGGGGTCCGAGGCGGGGCTTGGG; test: CD melting; conditions: 70 mM KCl; 20 mM phosphate pH 7.1; 2 µM DNA, DNA:ligand 1:3
SMILES,binding ([1]; 3'-end tetrad),other results
CN(C)CCNC(=O)c1cccn2c(=O)c3cc4ccccc4cc3nc12,yes,–
CN(C)CCNC(=O)c1cccn2c(=O)c3sc4ccccc4c3nc12,yes,binding [2]: yes
Cc1cc2c3c([n+](C)c4ccc(F)cc4c3c1)-c1cc(F)ccc1N2C,–,binding ([1]; 5'-terminal tetrad signals broadened): yes
Cc1cnc(CNC(=O)c2c(=O)c3ccc(N4CCCN(C)CC4)nc3n3c2sc2ccccc23)cn1,yes,–
NCCOc1cc(C(=O)Nc2cc(OCCN)c3ccccc3n2)nc(C(=O)Nc2cc(OCCN)c3ccccc3n2)c1,–,ΔTm [3]: > 30 °C
